From US8143408B2, “N-(8-heteroaryltetrahydronaphtalene-2yl) or N-(5-heteroarylchromane-3-yl) carboxamide derivatives for the treatment of pain” (AstraZeneca AB, priority 2007, dated 2012)
pIC50: −log10 of the molar value.

Target: T1, Nav1.7 voltage-gated sodium channel (Homo sapiens, UniProt Q15858)
T1 construct: Gene(s) encoding the full-length protein of the voltage-gated sodium channel of interest are cloned and expressed; expressed in transfected cells
Assay: Whole-cell voltage clamp electrophysiology assay
Format: cell-based
Conditions: cells stably expressing the voltage-gated sodium channel of interest
Description: Gene(s) encoding the full-length protein of the voltage-gated sodium channel of interest are cloned and expressed under a suitable promoter in a suitable cell line, as well known in the art. […] Suitable screening assays are as follows.
Electrophysiological studies can be performed using automated patch-clamp electrophysiology platforms, like IonWorks HT, IonWorks Quattro, PatchXpress, QPatch or any other suitable platform. […] Suitable extracellular and intracellular buffer for such experiments are applied according to the instructions given by the manufacturer of the automated patch-clamp platforms. Cells that express the voltage-gated sodium channel protein of interest are exposed to drugs through the pipetting system integrated in the platforms. A suitable voltage stimulus protocol is used to activate the voltage-gated sodium channel proteins of interest through depolarisation from a defined holding potential.
Electrophysiological studies can also be performed using the whole cell configuration of the standard patch clamp technique. In this assay, cells that express the voltage-gated sodium channel protein of interest are exposed to the drugs by conventional microperfusion systems and a suitable voltage stimulus protocol is used to activate the voltage-gated sodium channels.

T1 sequence (Q15858 whole entry): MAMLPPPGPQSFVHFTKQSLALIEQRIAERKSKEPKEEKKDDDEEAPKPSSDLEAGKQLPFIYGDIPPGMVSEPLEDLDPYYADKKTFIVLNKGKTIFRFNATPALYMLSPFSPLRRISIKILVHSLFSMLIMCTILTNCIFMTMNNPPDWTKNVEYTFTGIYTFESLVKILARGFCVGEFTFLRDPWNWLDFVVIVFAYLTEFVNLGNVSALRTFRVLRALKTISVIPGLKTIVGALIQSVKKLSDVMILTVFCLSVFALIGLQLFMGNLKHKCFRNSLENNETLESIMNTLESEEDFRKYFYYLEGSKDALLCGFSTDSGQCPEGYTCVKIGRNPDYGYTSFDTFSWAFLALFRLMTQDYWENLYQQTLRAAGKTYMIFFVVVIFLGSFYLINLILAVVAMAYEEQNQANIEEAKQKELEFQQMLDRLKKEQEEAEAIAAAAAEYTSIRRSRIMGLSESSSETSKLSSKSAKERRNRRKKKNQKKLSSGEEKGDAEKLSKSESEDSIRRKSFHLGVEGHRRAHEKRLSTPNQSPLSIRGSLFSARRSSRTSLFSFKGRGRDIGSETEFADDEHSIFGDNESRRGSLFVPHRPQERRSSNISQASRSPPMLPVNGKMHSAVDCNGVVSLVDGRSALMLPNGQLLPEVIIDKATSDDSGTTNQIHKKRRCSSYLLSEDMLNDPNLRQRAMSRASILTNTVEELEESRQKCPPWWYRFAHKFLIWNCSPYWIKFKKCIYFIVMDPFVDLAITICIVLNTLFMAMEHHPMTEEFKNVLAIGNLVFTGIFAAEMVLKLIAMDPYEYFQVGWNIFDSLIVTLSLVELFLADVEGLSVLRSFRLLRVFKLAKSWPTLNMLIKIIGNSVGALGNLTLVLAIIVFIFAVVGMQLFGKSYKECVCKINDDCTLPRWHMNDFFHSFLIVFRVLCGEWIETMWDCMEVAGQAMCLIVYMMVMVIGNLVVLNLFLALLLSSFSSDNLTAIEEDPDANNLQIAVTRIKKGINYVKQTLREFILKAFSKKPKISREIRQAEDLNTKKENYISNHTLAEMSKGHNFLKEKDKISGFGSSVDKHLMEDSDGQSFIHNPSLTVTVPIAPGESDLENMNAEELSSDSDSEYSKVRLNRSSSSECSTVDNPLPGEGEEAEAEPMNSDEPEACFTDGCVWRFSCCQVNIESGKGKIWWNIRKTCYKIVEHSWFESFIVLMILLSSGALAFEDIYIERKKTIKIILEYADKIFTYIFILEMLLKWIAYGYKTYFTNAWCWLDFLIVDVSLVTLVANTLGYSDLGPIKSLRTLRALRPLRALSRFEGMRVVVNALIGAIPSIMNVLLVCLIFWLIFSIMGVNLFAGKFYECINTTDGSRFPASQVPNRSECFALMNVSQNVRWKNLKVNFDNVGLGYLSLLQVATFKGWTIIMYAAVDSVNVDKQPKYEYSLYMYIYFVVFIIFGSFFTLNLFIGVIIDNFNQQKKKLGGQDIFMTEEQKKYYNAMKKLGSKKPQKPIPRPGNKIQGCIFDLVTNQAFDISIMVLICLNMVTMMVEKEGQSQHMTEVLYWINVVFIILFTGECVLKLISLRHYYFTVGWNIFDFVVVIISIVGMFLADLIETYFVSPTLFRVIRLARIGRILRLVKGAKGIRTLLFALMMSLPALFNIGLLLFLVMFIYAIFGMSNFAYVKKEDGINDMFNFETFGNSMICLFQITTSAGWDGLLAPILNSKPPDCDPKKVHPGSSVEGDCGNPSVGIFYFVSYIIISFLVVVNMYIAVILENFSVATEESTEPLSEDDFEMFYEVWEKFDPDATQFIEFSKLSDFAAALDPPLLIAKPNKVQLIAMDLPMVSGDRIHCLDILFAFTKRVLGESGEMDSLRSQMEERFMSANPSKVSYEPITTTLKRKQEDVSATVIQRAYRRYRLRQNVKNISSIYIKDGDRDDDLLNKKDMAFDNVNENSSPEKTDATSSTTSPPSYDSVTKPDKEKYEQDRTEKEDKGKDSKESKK

Row | SMILES | pIC50
1 | Cc1noc(C)c1-c1cccc2c1C[C@H](NC(=O)c1cnc(OC3CCCC3)nc1)CC2 [Example 33, 2-(cyclopentyloxy)-N-[(2R)-8-(3,5-dimethylisoxazol-4-yl)-1,2,3,4-tetrahydronaphthalen-2-yl]pyrimidine-5-carboxamide] | 6.50
2 | CCCCS(=O)(=O)c1ccc(C(=O)N[C@@H]2COc3cccc(-c4ccncc4)c3C2)cn1 [Example 34, 6-(butylsulfonyl)-N-[(3S)-5-pyridin-4-yl-3,4-dihydro-2H-chromen-3-yl]nicotinamide] | 6.20
3 | O=C(N[C@@H]1COc2cccc(-c3ccncc3)c2C1)c1ccc(Cl)nc1 [Example 35, 6-chloro-N-[(3S)-5-pyridin-4-yl-3,4-dihydro-2H-chromen-3-yl]nicotinamide] | 6.20
4 | CC(C)Oc1ncc(C(=O)N[C@@H]2COc3cccc(-c4ccncc4)c3C2)cn1 [Example 36, 2-isopropoxy-N-[(3S)-5-pyridin-4-yl-3,4-dihydro-2H-chromen-3-yl]pyrimidine-5-carboxamide] | 5.90
5 | COc1cnc(C(=O)N[C@@H]2COc3cccc(-c4ccncc4)c3C2)cn1 [Example 37, 5-methoxy-N-[(3S)-5-pyridin-4-yl-3,4-dihydro-2H-chromen-3-yl]pyrazine-2-carboxamide] | 6.00
6 | CC(C)Oc1cnc(C(=O)N[C@@H]2COc3cccc(-c4ccncc4)c3C2)cn1 [Example 38, 5-isopropoxy-N-[(3S)-5-pyridin-4-yl-3,4-dihydro-2H-chromen-3-yl]pyrazine-2-carboxamide] | 6.20
7 | O=C(N[C@@H]1COc2cccc(-c3ccncc3)c2C1)c1cnc2ccccc2n1 [Example 41, N-[(3S)-5-pyridin-4-yl-3,4-dihydro-2H-chromen-3-yl]quinoxaline-2-carboxamide] | 5.30
8 | CC(C)Oc1cnc(C(=O)N[C@@H]2COc3cccc(-c4cccnc4)c3C2)cn1 [Example 42, 5-isopropoxy-N-[(3S)-5-pyridin-3-yl-3,4-dihydro-2H-chromen-3-yl]pyrazine-2-carboxamide] | 6.00
9 | COc1cnc(C(=O)N[C@@H]2COc3cccc(-c4cccnc4)c3C2)cn1 [Example 44, 5-methoxy-N-[(3S)-5-pyridin-3-yl-3,4-dihydro-2H-chromen-3-yl]pyrazine-2-carboxamide] | 6.20
10 | O=C(N[C@@H]1COc2cccc(-c3cccnc3)c2C1)c1ccc2cccnc2n1 [Example 45, N-[(3S)-5-pyridin-3-yl-3,4-dihydro-2H-chromen-3-yl]-1,8-naphthyridine-2-carboxamide] | 5.90
11 | O=C(N[C@@H]1COc2cccc(-c3cccnc3)c2C1)c1ccc2ncccc2n1 [Example 46, N-[(3S)-5-pyridin-3-yl-3,4-dihydro-2H-chromen-3-yl]-1,5-naphthyridine-2-carboxamide] | 5.50
12 | COc1ccc(-c2cccc3c2C[C@H](NC(=O)c2cnc(OC)cn2)CO3)cn1 [Example 49, 5-methoxy-N-[(3S)-5-(6-methoxypyridin-3-yl)-3,4-dihydro-2H-chromen-3-yl]pyrazine-2-carboxamide] | 5.90
13 | Cc1nn(CC(C)C)nc1C(=O)N[C@@H]1COc2cccc(-c3cccnc3)c2C1 [Example 52, 2-isobutyl-5-methyl-N-[(3S)-5-pyridin-3-yl-3,4-dihydro-2H-chromen-3-yl]-2H-1,2,3-triazole-4-carboxamide] | 5.40
14 | CC(C)Oc1ccc(C(=O)N[C@@H]2COc3cccc(-c4cncnc4)c3C2)cn1 [Example 53, 6-isopropoxy-N-[(3S)-5-pyrimidin-5-yl-3,4-dihydro-2H-chromen-3-yl]nicotinamide] | 6.60
15 | COc1ncc(-c2cccc3c2C[C@H](NC(=O)c2ccc(OC(C)C)nc2)CO3)cn1 [Example 55, 6-isopropoxy-N-[(3S)-5-(2-methoxypyrimidin-5-yl)-3,4-dihydro-2H-chromen-3-yl]nicotinamide] | 6.50
16 | COc1cc(-c2cccc3c2C[C@H](NC(=O)c2ccc(OC(C)C)nc2)CO3)ccn1 [Example 58, 6-isopropoxy-N-[(3S)-5-(2-methoxypyridin-4-yl)-3,4-dihydro-2H-chromen-3-yl]nicotinamide] | 6.40
17 | Cc1ncc(-c2cccc3c2C[C@H](NC(=O)c2ccc(OC(C)C)nc2)CO3)cn1 [Example 60, 6-isopropoxy-N-[(3S)-5-(2-methylpyrimidin-5-yl)-3,4-dihydro-2H-chromen-3-yl]nicotinamide] | 6.80

Next, values leading:

Row | pIC50 | SMILES
18 | 6.80 | O=C(N[C@@H]1COc2cccc(-c3ccncc3)c2C1)c1ccc(OC2CCC2)nc1 [Example 29, 6-(cyclobutyloxy)-N-[(3S)-5-pyridin-4-yl-3,4-dihydro-2H-chromen-3-yl]nicotin-amide]
19 | 6.70 | O=C(N[C@@H]1COc2cccc(-c3ccncc3)c2C1)c1ccc(OCC2CC2)nc1 [Example 30, 6-(cyclopropylmethoxy)-N-[(3S)-5-pyridin-4-yl-3,4-dihydro-2H-chromen-3-yl]nicotin-amide]
20 | 5.60 | Cc1noc(C)c1-c1cccc2c1C[C@H](NC(=O)c1ccc(OC(C)C)nc1)CC2 [Example 31, N-[(2R)-8-(3,5-dimethylisoxazol-4-yl)-1,2,3,4-tetrahydronaphthalen-2-yl]-6-isopropoxy-nicotinamide]
21 | 6.90 | CC(C)Oc1ccc(C(=O)N[C@@H]2CCc3cccc(-c4ccncc4F)c3C2)cn1 [Example 39, N-[(2R)-8-(3-fluoropyridin-4-yl)-1,2,3,4-tetrahydronaphthalen-2-yl]-6-isopropoxynicotinamide]
22 | 7.30 | O=C(N[C@@H]1CCc2cccc(-c3ccncc3F)c2C1)c1ccc(OCC(F)(F)F)nc1 [Example 40, N-[(2R)-8-(3-fluoropyridin-4-yl)-1,2,3,4-tetrahydronaphthalen-2-yl]-6-(2,2,2-trifluoroethoxy)nicotinamide]
23 | 6.30 | O=C(N[C@@H]1COc2cccc(-c3cccnc3)c2C1)c1cnc(OCCC(F)(F)F)cn1 [Example 43, N-[(3S)-5-pyridin-3-yl-3,4-dihydro-2H-chromen-3-yl]-5-(3,3,3-trifluoropropoxy)pyrazine-2-carboxamide]
24 | 6.20 | COc1ccc(-c2cccc3c2C[C@H](NC(=O)c2cnc(OCCC(F)(F)F)cn2)CO3)cn1 [Example 48, N-[(3S)-5-(6-methoxypyridin-3-yl)-3,4-dihydro-2H-chromen-3-yl]-5-(3,3,3-trifluoropropoxy)pyrazine-2-carboxamide]
25 | 7.20 | CC(C)Oc1ccc(C(=O)N[C@@H]2COc3cccc(-c4cccnc4)c3C2)cn1 [Example 50, 6-isopropoxy-N-[(3S)-5-pyridin-3-yl-3,4-dihydro-2H-chromen-3-yl]nicotinamide]
26 | 7.40 | O=C(N[C@@H]1COc2cccc(-c3cccnc3)c2C1)c1ccc(OCCC(F)(F)F)nc1 [Example 51, N-[(3S)-5-pyridin-3-yl-3,4-dihydro-2H-chromen-3-yl]-6-(3,3,3-trifluoropropoxy)nicotinamide]
27 | 7.20 | O=C(N[C@@H]1COc2cccc(-c3cncnc3)c2C1)c1ccc(OCCC(F)(F)F)nc1 [Example 54, N-[(3S)-5-pyrimidin-5-yl-3,4-dihydro-2H-chromen-3-yl]-6-(3,3,3-trifluoropropoxy)nicotinamide]
28 | 6.90 | COc1cc(-c2cccc3c2C[C@H](NC(=O)c2ccc(OCCC(F)(F)F)nc2)CO3)ccn1 [Example 59, N-[(3S)-5-(2-methoxypyridin-4-yl)-3,4-dihydro-2H-chromen-3-yl]-6-(3,3,3-trifluoropropoxy)nicotinamide]
